Among the data in ChEMBL document CHEMBL1909046, “DrugMatrix in vitro pharmacology data” are IC50 and Ki values, retold here.

Assay [1] deals with T1, Nitric oxide synthase, inducible (Mus musculus, UniProt P29477).
T1 sequence (P29477 whole entry): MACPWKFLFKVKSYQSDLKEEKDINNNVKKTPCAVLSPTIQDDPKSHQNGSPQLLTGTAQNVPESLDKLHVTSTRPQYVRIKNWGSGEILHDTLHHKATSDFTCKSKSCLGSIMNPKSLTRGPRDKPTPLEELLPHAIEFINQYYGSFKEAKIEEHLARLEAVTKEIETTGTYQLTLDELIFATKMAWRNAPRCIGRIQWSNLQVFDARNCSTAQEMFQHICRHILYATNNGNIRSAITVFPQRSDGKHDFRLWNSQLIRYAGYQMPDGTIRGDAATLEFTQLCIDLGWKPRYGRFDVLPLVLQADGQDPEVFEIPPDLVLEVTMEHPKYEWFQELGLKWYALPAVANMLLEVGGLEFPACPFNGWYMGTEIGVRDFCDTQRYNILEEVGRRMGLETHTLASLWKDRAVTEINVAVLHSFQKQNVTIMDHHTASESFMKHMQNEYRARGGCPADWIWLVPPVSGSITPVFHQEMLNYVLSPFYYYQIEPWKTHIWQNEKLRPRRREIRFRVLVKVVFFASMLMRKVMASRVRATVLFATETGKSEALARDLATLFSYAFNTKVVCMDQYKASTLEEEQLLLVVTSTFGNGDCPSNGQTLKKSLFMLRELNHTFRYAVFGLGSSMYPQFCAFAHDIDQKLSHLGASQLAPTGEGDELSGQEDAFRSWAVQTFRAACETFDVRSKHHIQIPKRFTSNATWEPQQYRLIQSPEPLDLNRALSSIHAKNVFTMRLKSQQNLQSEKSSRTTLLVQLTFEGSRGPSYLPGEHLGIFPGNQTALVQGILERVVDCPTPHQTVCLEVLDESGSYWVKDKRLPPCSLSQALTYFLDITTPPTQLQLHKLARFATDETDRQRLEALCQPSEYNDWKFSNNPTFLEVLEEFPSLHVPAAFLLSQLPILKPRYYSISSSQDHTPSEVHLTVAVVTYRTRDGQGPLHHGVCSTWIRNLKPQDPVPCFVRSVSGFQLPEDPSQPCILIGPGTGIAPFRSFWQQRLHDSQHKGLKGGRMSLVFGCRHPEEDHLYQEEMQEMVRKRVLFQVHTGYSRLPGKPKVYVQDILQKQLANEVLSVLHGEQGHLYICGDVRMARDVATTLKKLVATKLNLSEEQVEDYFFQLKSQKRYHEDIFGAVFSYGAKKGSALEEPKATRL
Details: species or system Escherichia coli.

Assay [2] is described as follows: DRUGMATRIX: Serotonin (5-Hydroxytryptamine) 5-HT3 radioligand binding (ligand: [3H] GR-65630). Type of assay: cell membranes, Membrane. Particulars: hek293; Not Active = under 50% inhibition at 10 µM.
The next assay concerns the target T2, Endothelin-1 receptor (Homo sapiens, UniProt P25101). Note: in other assays of this panel Not Active means under 50% inhibition at 10 µM.
T2 sequence (P25101 whole entry): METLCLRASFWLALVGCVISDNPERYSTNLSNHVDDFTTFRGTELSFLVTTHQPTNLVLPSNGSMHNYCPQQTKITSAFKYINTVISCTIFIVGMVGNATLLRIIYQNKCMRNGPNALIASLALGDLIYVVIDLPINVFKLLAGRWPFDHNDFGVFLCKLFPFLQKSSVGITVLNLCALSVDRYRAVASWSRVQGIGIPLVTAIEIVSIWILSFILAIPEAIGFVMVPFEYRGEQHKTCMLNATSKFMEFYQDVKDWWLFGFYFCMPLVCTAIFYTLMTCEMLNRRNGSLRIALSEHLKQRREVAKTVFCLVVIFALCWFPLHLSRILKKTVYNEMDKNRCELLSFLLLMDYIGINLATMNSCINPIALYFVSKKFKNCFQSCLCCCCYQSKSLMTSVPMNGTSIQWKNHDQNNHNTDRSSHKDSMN
Type of assay: cell membranes, Membrane. Particulars: cho-k1.

The target in assay [3] is T3, Alpha-1B adrenergic receptor (Rattus norvegicus, UniProt P15823).
T3 sequence (P15823 whole entry): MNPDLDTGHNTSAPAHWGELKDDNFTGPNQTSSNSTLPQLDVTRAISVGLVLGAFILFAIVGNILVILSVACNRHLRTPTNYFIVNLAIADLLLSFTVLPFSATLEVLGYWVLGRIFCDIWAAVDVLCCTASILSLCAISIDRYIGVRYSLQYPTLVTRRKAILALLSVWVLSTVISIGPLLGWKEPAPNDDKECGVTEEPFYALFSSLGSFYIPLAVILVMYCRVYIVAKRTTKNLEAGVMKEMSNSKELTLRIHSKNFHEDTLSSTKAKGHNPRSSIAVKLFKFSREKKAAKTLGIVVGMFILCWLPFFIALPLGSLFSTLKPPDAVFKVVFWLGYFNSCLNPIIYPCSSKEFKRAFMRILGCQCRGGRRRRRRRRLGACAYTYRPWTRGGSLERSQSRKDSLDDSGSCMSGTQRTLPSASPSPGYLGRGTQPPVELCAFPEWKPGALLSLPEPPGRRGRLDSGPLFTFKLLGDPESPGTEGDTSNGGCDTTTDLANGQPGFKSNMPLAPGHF
Briefly: DRUGMATRIX: Alpha-1B adrenergic receptor radioligand binding (ligand: prazosin). The assay is classed as cell membranes, Wistar, Liver, Membrane. Particulars: Not Active = under 50% inhibition at 10 µM.

Assay [4] addresses Epidermal growth factor receptor (Homo sapiens, UniProt P00533). Description: DRUGMATRIX: Protein Tyrosine Kinase, EGF Receptor enzyme inhibition (substrate: Poly(Glu:Tyr)). Type of assay: cell-based, Insect cells. Particulars: insect cells; Not Active = under 50% inhibition at 10 µM.
Assay [5] concerns the target T4, C-C chemokine receptor type 4 (Homo sapiens, UniProt P51679). Note: in other assays of this panel Not Active means under 50% inhibition at 10 µM.
T4 sequence (P51679 whole entry): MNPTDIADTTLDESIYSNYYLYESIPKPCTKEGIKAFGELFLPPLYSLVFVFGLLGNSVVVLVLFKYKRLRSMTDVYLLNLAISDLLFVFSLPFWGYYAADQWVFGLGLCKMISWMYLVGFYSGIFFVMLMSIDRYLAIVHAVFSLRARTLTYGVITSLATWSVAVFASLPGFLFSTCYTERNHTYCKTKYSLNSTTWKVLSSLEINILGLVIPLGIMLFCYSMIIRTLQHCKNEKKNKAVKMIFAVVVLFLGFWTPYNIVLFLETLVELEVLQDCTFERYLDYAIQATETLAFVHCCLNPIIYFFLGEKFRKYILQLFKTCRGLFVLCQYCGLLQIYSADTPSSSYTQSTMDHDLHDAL
Type of assay: cell membranes, Membrane. Particulars: chem-1.

Assay [6] is described as follows: DRUGMATRIX: Nicotinic Acetylcholine radioligand binding (ligand: [125I] Epibatidine). Type of assay: cell membranes, Membrane. Particulars: imr-32; Not Active = under 50% inhibition at 10 µM.
Assay [7] can be described thus: DRUGMATRIX: Calcium Channel Type L, Dihydropyridine radioligand binding (ligand: [3H] Nitrendipine). Type of assay: cell membranes, Rattus norvegicus, Wistar, Cerebral cortex, Membrane. Particulars: Not Active = under 50% inhibition at 10 µM.
Assay [8] can be described thus: DRUGMATRIX: Phosphodiesterase PDE4 enzyme inhibition (substrate: [3H]cAMP + cAMP). Particulars: u-937; Not Active = under 50% inhibition at 10 µM.

Broadly, the IC50 is the midpoint of a concentration-inhibition curve. What is called Ki is the equilibrium dissociation constant of an inhibitor or competing ligand from its target. On to `CC(C)[C@H](N)C(=O)OCCOCn1cnc2c(=O)nc(N)[nH]c21` [VALACYCLOVIR], for which the half-maximal inhibitory concentration (IC50) entry (in [1]; in assay [2]; against Endothelin-1 receptor; in assay [3]; in assay [4]; in assay [5]) was “Not Active” throughout. Also, the IC50 result in [6], in assay [7] and in [8] was “Not Active” each time. Further, the Ki entry in [2], in [6], in [7] and in assay [8] was “Not Active” each time.

`CN[C@H](CC(C)C)C(=O)N[C@H]1C(=O)N[C@@H](CC(N)=O)C(=O)N[C@H]2C(=O)N[C@H]3C(=O)N[C@H](C(=O)N[C@H](C(=O)O)c4cc(O)cc(O)c4-c4cc3ccc4O)[C@H](O)c3ccc(c(Cl)c3)Oc3cc2cc(c3O[C@@H]2O[C@H](CO)[C@@H](O)[C@H](O)[C@H]2O[C@H]2C[C@](C)(N)[C@H](O)[C@H](C)O2)Oc2ccc(cc2Cl)[C@H]1O` [VANCOMYCIN]: the IC50 result (in [1]; in assay [2]; at Endothelin-1 receptor; in assay [3]; in [4]; in assay [5]) was “Not Active” each time. Also, the IC50 result in [6], in assay [7] and in [8] was “Not Active” throughout. Besides, the Ki result in assay [2], in [6], in [7] and in assay [8] was “Not Active” in each case.

Take `COc1ccc(C(CN(C)C)C2(O)CCCCC2)cc1` (stereo unspecified) [VENLAFAXINE]: the half-maximal inhibitory concentration (IC50) result (in [1]; in assay [2]; against Endothelin-1 receptor; in assay [3]; in assay [4]; in [5]) was “Not Active” in each case. Moreover, the concentration for half-maximal inhibition (IC50) entry in [6], in [7] and in assay [8] was “Not Active” in each case. Besides, the Ki entry in assay [2], in [6], in [7] and in [8] was “Not Active” throughout.

Consider `COC(=O)[C@@H]1[C@H]2C[C@H]3c4[nH]c5ccccc5c4CCN3C[C@@H]2CC[C@@H]1O` [YOHIMBINE], for which the IC50 result in [1] is “Not Active”; in assay [2], “Not Active”; on Endothelin-1 receptor, “Not Active”; in assay [3] (read-out: IC50), 1190 nM; in assay [4], “Not Active”; in assay [5], “Not Active”. Moreover, the concentration for half-maximal inhibition (IC50) entry in assay [6], in assay [7] and in assay [8] was “Not Active” in each case. For the same compound, the Ki result in [2] was “Not Active”; in assay [3] (read-out: Ki), 658 nM; in assay [6] it was “Not Active”; in assay [7], “Not Active”; in assay [8], “Not Active”.

In the case of IVERMECTIN, the IC50 entry (in [1]; in [2]; against Endothelin-1 receptor; in assay [3]; in [4]; in assay [5]) was “Not Active” each time. In addition, the half-inhibitory concentration (IC50) entry in assay [6], in assay [7] and in [8] was “Not Active” in each case. Also, the Ki result (in assay [1]; in assay [2]; on Endothelin-1 receptor; in assay [3]; in assay [4]; in assay [5]) was “Not Active” in each case. In addition, the Ki entry in assay [6], in assay [7] and in [8] was “Not Active” each time.
